Counter-ions that a name gives are not always drawn. Like-named read-outs stand apart in the source and are kept apart here.
Legend:
[1] = compaction susceptibility (tendency of the salt to compact under its own weight); format: physicochemical
[2] = hygroscopicity / moisture uptake at 95% relative humidity by Dynamic Vapour Sorption (DVS); format: physicochemical; conditions: for % moisture uptake, 30 min / % moisture uptake, 70 min / % moisture uptake, 3 hours / % moisture uptake, 6 hours: DVS; for moisture uptake equilibrium reached or not: at the last time point (6 hours; 30 min for succinate)
Description: The following experiment was carried out to determine moisture sorption/desorption profiles of metformin (2:1) fumarate salt and metformin (2:1) succinate salt compared to the moisture uptake properties of metformin hydrochloride salt.
The hygroscopicity of metformin salts was assessed by Dynamic Vapour Sorption (DVS), a means of rapidly assessing sample moisture uptake properties. […] […] The weight increase of sample at each condition is recorded until a defined minimal rate of mass change is reached or a specified time period for equilibrium exceeded.

[3] = 95% relative humidity/25° C., hydrochloride

| Compound | compaction susceptibility ([1]; hydrochloride) | moisture content after 6 hours (summary) ([2]; 95% relative humidity at 25° C., hydrochloride) [%] | % moisture uptake, 30 min [2, 3] [%] | % moisture uptake, 70 min [2, 3] [%] | % moisture uptake, 3 hours [2, 3] [%] | % moisture uptake, 6 hours [2, 3] [%] | hygroscopicity, moisture uptake at 6 hours [2, 3] | moisture uptake equilibrium reached or not ([2]; 95% relative humidity/25° C.) | moisture absorbed compared to the metformin (2:1) fumarate and succinate salts ([2]; vs metformin (2:1) fumarate and succinate salts, 95% relative humidity) | compaction susceptibility [1] | equilibrium moisture content after 30 minutes (summary) ([2]; 95% relative humidity at 25° C., 30 minutes) [%] | % moisture uptake, 30 min ([2]; 95% relative humidity/25° C.) [%] | hygroscopicity, moisture uptake at 30 minutes ([2]; 95% relative humidity/25° C., 30 minutes) | hygroscopicity, moisture uptake at 6 hours ([2]; 95% relative humidity/25° C.) | moisture content after 6 hours (summary) ([2]; 95% relative humidity at 25° C.) [%] | % moisture uptake, 70 min ([2]; 95% relative humidity/25° C.) [%] | % moisture uptake, 3 hours ([2]; 95% relative humidity/25° C.) [%] | % moisture uptake, 6 hours ([2]; 95% relative humidity/25° C.) [%] |
| --- | --- | --- | --- | --- | --- | --- | --- | --- | --- | --- | --- | --- | --- | --- | --- | --- | --- | --- |
| CN(C)C(=N)N=C(N)N [metformin hydrochloride, reference compound] | high compaction susceptibility | 20 | 1.2 | 3.3 | 10.0 | 20.1 | greater than 20 % moisture uptake | did not reach equilibrium | substantially greater amounts of moisture | – | – | – | – | – | – | – | – | – |
| CN(C)C(=N)NC(=N)N [metformin (2:1) succinate] | – | – | – | – | – | – | – | reach equilibrium | – | low compaction susceptibility | 0.27 | 0.27 | less than 1 % moisture uptake | less than 7 % moisture uptake | – | – | – | – |
| CN(C)C(=N)N=C(N)N [metformin (2:1) fumarate] | – | – | – | – | – | – | – | – | – | low compaction susceptibility | – | 1.0 | – | less than 7 % moisture uptake | 6.6 | 2.0 | 4.1 | 6.6 |
